According to US20170112859A1, “METHOD OF TREATMENT USING AN ASSOCIATION OF LOSARTAN AND ACETYLSALICYLIC ACID, AND KIT” (BIOLAB SANUS FARMACEUTICA LTDA, priority 2014, published 2017):
Entries after “also recorded” stand apart in the source; their conditions may differ.

Assays:
platelet aggregation = platelet aggregation tests with arachidonic acid or ADP as stimulants, volunteers' platelet-rich plasma; assay type: in vivo, human
Protocol: (§1) One group (Arm A) received 30 days of daily doses of 50 mg of losartan potassium and 81 mg of acetylsalicylic acid. The second group (Arm B) received over the same 30 day period, daily doses of 50 mg of losartan potassium and doses of 81 mg of acetylsalicylic acid only every three days.
(§2) Control of bioavailability for acetylsalicylic acid in the analyzed individuals was performed through platelet aggregation tests, using arachidonic acid and adenosine diphosphate (ADP) as stimulants, and through the measuring of thromboxane by immunoenzymatic techniques.
(§3) The test results shown in FIGS. 1 to 6 consider four periods: D0, which is the pre-test time D15—the fifteenth day of testing, D16—the sixteenth day of testing and D17—the seventeenth day testing.

[1] = tested on: prostaglandin synthesis (PGE2) in gastric mucosa; conditions: daily use, as described in the prior art; cited from earlier work
[2] = target: T1, platelet cyclooxygenase enzyme (Homo sapiens, UniProt P23219); assay: measurement of thromboxane B2 (TXB2) in stimulated platelet-rich plasma by immunoenzymatic technique; assay type: in vivo; conditions: D15-D17
T1 construct: from tissue; host or cells: platelets of dosed healthy volunteers (ex vivo stimulation with arachidonic acid or ADP)
Protocol: as §1, §2
Such control is based on tests to evaluate the competition between two compounds for binding to a specific antibody, namely, free thromboxane 2 (TXB 2) to be analyzed and present in the samples tested, and marked thromboxane 2 (TXB 2), attached to a molecule of acetylcholinesterase and with constant concentration (provided by the test kits).
as §3

[3] = tested on: prostaglandin synthesis (PGE2) in gastric mucosa; assay: prostaglandin-E2 concentration in antrum biopsies collected during endoscopy, pre- and post-treatment; assay type: in vivo, human; conditions: 30 days
Protocol: as §1
To obtain this proof, endoscopic tests were performed on each volunteer, always before starting treatment and also after treatment, when biopsies were collected.
From these samples, collected from both Arm A and Arm B of the treatment, the inhibition of prostaglandin was measured.

[4] = Arm A: 81 mg daily plus 50 mg losartan potassium daily
[5] = Arm B: 81 mg every three days plus 50 mg losartan potassium daily

T1 sequence (P23219 24-599): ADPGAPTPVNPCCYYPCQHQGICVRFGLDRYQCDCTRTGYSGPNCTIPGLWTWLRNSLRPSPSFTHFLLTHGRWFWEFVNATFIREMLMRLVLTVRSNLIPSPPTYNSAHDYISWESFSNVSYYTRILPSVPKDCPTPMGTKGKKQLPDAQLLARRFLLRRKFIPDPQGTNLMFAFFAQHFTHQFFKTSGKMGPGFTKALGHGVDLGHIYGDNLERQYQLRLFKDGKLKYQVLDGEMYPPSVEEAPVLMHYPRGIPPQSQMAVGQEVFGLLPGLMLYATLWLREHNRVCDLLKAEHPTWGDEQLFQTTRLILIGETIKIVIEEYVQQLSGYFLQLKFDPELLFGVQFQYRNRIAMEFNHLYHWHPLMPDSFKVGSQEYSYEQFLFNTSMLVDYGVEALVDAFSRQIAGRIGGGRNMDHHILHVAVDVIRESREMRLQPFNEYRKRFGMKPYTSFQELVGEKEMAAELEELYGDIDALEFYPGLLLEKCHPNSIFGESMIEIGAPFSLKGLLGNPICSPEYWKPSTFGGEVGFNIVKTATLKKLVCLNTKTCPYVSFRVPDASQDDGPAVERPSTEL

In the case of `CC(=O)Oc1ccccc1C(=O)O` [acetylsalicylic acid], the “level of platelet inhibition” value (platelet aggregation; Arm A (81 mg daily) compared with Arm B (81 mg every three days), both with 50 mg losartan potassium daily, 30 days, healthy volunteers, stimulants arachidonic acid 300 μg/ml or ADP 20 μM) is listed as “almost the same level of platelet inhibition”, the “inhibitory effect of the platelet aggregation” value (platelet aggregation; acetylsalicylic acid administered every three days) is listed as “sustained” and the PGE2 levels [1] is listed as “drastically reduces”. For the same compound, the “inhibition of the platelet cyclooxygenase enzyme” value [2, 4] was “satisfactory inhibition”, the “inhibition of the platelet cyclooxygenase enzyme” value [2, 5] was “satisfactory inhibition” and the “prostaglandin (PGE2) levels post-treatment versus pre-treatment basal” value [3, 4] was “significant decrease”. For the same compound, the “prostaglandin (PGE2) levels post-treatment versus pre-treatment basal” value [3, 5] was “did not alter the basal dose; also recorded: remained unaltered”.
